Laboratory results: patent publication US9266892B2, “Fused pyrazoles as FGFR inhibitors” (Incyte Corporation, priority 2012, dated 2016)

What was measured:
Format in all cases: biochemical
[1] = molecular target: T1, FGFR1 (Homo sapiens, UniProt P11362); assay: FGFR Enzymatic Assay (FRET peptide phosphorylation), FGFR1; settings: FGFR1 0.02 nM, ATP 210 μM
T1 construct: purchased Millipore or Invitrogen
Procedure: (§1) The inhibitor potency of the Example compounds was measured in an enzyme assay that measures peptide phosphorylation using FRET measurements to detect product formation. Inhibitors were serially diluted in DMSO and a volume of 0.5 μL was transferred to the wells of a 384-well plate. For FGFR3, a 10 μL volume of FGFR3 enzyme (Millipore) diluted in assay buffer (50 mM HEPES, 10 mM MgCl2, 1 mM EGTA, 0.01% Tween-20, 5 mM DTT, pH 7.5) was added to the plate and pre-incubated for 5-10 minutes. Appropriate controls (enzyme blank and enzyme with no inhibitor) were included on the plate. The assay was initiated by the addition of a 10 μL solution containing biotinylated EQEDEPEGDYFEWLE peptide substrate (SEQ ID NO: 1) and ATP (final concentrations of 500 nM and 140 μM respectively) in assay buffer to the wells. The plate was incubated at 25° C. for 1 hr. The reactions were ended with the addition of 10 μL/well of quench solution (50 mM Tris, 150 mM NaCl, 0.5 mg/mL BSA, pH˜7.8, 30 mM EDTA with Perkin Elmer Lance Detection Reagents at 3.75 nM Eu-antibody PY20 and 180 nM APC-Streptavidin). The plate was allowed to equilibrate for 1 hour before scanning the wells on a PheraStar plate reader (BMG Labtech). The enzymes were purchased from Millipore or Invitrogen.
(§2) FGFR1 and FGFR2 were measured under equivalent conditions with the following changes in enzyme and ATP concentrations: FGFR1, 0.02 nM and 210 μM, respectively and FGFR2, 0.01 nM and 100 μM, respectively.
(§3) GraphPad prism3 was used to analyze the data. The IC50 values were derived by fitting the data to the equation for a sigmoidal dose-response with a variable slope. Y=Bottom+(Top−Bottom)/(1+10^((Log IC50−X)*HillSlope)) where X is the logarithm of concentration and Y is the response.

[2] = molecular target: T2, FGFR2 (Homo sapiens, UniProt P21802); assay: FGFR Enzymatic Assay (FRET peptide phosphorylation), FGFR2; settings: FGFR2 0.01 nM, ATP 100 μM
T2 construct: purchased Millipore or Invitrogen
T2 sequence (P21802 22-821): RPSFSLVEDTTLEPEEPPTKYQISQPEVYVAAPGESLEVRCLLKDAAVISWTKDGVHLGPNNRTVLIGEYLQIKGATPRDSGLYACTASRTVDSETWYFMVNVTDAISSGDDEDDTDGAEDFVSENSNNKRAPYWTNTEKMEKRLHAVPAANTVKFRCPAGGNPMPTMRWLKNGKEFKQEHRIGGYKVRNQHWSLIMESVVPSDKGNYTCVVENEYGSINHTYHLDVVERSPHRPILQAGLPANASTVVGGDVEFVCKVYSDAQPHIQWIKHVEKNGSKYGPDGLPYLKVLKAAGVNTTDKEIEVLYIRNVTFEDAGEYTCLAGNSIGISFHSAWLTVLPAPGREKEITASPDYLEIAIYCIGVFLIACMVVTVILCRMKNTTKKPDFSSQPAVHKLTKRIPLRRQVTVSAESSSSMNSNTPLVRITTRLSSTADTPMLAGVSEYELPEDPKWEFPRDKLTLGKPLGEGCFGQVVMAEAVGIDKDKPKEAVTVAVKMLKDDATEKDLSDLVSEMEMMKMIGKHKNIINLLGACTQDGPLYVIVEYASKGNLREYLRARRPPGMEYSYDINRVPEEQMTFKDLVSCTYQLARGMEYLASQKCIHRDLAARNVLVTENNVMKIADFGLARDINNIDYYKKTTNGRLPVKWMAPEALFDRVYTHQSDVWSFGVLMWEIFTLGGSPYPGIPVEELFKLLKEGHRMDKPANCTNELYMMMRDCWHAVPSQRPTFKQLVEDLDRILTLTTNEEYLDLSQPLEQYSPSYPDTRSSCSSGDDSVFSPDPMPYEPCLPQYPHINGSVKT
Procedure: as §1, §2, §3

[3] = molecular target: T3, FGFR3 (Homo sapiens, UniProt P22607); assay: FGFR Enzymatic Assay (FRET peptide phosphorylation), FGFR3; settings: ATP 140 μM, 25° C. for 1 hr
T3 construct: purchased Millipore
T3 sequence (P22607 23-806): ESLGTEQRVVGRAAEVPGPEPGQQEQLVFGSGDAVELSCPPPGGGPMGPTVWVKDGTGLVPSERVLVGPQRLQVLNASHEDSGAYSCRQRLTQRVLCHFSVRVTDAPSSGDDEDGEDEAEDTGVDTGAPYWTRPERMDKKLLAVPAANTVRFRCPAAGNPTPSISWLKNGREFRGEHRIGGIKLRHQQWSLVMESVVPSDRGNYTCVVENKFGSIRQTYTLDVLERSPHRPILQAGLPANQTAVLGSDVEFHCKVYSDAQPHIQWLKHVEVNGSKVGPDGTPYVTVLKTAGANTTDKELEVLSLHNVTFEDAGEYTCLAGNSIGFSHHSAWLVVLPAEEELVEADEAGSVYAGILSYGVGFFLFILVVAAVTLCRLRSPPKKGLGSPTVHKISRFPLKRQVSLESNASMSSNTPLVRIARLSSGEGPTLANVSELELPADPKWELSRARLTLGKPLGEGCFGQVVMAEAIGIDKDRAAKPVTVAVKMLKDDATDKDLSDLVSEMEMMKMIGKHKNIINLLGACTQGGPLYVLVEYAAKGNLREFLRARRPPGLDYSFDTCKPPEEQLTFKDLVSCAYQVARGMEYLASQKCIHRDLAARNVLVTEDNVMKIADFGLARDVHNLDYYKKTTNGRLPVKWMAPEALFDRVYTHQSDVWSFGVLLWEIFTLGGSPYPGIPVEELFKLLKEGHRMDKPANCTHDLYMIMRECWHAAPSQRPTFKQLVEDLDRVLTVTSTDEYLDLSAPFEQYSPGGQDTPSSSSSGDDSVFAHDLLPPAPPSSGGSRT
Procedure: as §1, §3

T1 sequence (P11362 22-822): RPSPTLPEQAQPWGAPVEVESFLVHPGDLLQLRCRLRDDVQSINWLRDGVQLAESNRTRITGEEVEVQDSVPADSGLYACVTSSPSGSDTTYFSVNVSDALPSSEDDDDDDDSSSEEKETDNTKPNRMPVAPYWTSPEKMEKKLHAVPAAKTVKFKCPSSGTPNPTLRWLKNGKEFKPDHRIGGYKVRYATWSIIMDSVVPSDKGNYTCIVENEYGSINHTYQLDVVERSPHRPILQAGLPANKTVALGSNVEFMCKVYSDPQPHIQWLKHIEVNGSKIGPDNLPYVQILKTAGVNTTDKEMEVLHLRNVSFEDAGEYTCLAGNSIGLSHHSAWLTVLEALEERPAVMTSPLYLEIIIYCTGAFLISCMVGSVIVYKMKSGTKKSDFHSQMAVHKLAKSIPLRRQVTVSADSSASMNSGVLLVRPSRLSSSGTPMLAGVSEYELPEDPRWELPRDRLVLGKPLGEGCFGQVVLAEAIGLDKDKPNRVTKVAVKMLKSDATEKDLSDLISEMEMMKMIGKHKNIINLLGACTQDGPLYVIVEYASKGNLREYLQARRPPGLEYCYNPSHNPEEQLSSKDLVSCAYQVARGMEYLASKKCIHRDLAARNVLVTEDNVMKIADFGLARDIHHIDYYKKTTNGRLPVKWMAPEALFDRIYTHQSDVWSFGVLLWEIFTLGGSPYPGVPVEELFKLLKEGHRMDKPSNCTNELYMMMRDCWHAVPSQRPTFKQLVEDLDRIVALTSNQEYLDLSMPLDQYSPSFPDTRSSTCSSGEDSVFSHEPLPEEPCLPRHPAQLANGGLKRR

SMILES | IC50 [1] [nM] | IC50 [2] [nM] | IC50 [3] [nM]
COc1cc(OC)c(Cl)c(-c2cc3[nH]nc(-c4cnn(CC(=O)N5CCC(O)C5)c4)c3cn2)c1Cl (stereo not drawn) [Example 43, 1-({4-[6-(2,6-Dichloro-3,5-dimethoxyphenyl)-1H-pyrazolo[4,3-c]pyridin-3-yl]-1H-pyrazol-1-yl}acetyl)pyrrolidin-3-ol] | < 100 | < 100 | < 100
COc1cc(OC)c(Cl)c(-c2cc3[nH]nc(-c4cnn(CC(=O)N5CCC(N(C)C)C5)c4)c3cn2)c1Cl (stereo not drawn) [Example 44, 1-({4-[6-(2,6-Dichloro-3,5-dimethoxyphenyl)-1H-pyrazolo[4,3-c]pyridin-3-yl]-1H-pyrazol-1-yl}acetyl)-N,N-dimethylpyrrolidin-3-amine] | < 100 | < 100 | < 100
COCCNC(=O)Cn1cc(-c2n[nH]c3cc(-c4c(Cl)c(OC)cc(OC)c4Cl)ncc23)cn1 [Example 46, 2-{4-[6-(2,6-Dichloro-3,5-dimethoxyphenyl)-1H-pyrazolo[4,3-c]pyridin-3-yl]-1H-pyrazol-1-yl}-N-(2-methoxyethyl)acetamide] | < 100 | < 100 | < 100
COc1cc(OC)c(Cl)c(-c2cc3[nH]nc(-c4cnn(CC(=O)N5CC[C@H](F)C5)c4)c3cn2)c1Cl [Example 48, 6-(2,6-Dichloro-3,5-dimethoxyphenyl)-3-(1-{2-[(3S)-3-fluoropyrrolidin-1-yl]-2-oxoethyl}-1H-pyrazol-4-yl)-1H-pyrazolo[4,3-c]pyridine] | < 100 | < 100 | < 100
COc1cc(OC)c(Cl)c(-c2cc3[nH]nc(/C=C/c4cnn(CCO)c4)c3cn2)c1Cl [Example 50, 2-(4-{(E)-2-[6-(2,6-Dichloro-3,5-dimethoxyphenyl)-1H-pyrazolo[4,3-c]pyridin-3-yl]vinyl}-1H-pyrazol-1-yl)ethanol] | < 100 | < 100 | < 100
CCN1Cc2cc(-c3n[nH]c4cc(-c5c(F)c(OC)cc(OC)c5F)ncc34)ccc2C1=O [Example 52, 5-[6-(2,6-Difluoro-3,5-dimethoxyphenyl)-1H-pyrazolo[4,3-c]pyridin-3-yl]-2-ethylisoindolin-1-one] | < 100 | < 100 | < 100
COc1cc(OC)c(F)c(-c2cc3[nH]nc(-c4ccc5c(c4)CN(C4CC4)C5=O)c3cn2)c1F [Example 54, 2-Cyclopropyl-5-[6-(2,6-difluoro-3,5-dimethoxyphenyl)-1H-pyrazolo[4,3-c]pyridin-3-yl]isoindolin-1-one] | < 100 | < 100 | < 100
CCN1Cc2cc(-c3n[nH]c4cc(-c5c(F)c(OC)cc(OC)c5F)ncc34)cnc2C1=O [Example 55, 3-[6-(2,6-Difluoro-3,5-dimethoxyphenyl)-1H-pyrazolo[4,3-c]pyridin-3-yl]-6-ethyl-5,6-dihydro-7H-pyrrolo[3,4-b]pyridin-7-one] | < 100 | < 100 | < 100
COc1cc(OC)c(F)c(-c2cc3[nH]nc(-c4ccc5c(c4)CCNC5=O)c3cn2)c1F [Example 56, 6-[6-(2,6-Difluoro-3,5-dimethoxyphenyl)-1H-pyrazolo[4,3-c]pyridin-3-yl]-3,4-dihydroisoquinolin-1(2H)-one] | < 100 | < 100 | < 100
COCCN1Cc2cc(-c3n[nH]c4cc(-c5c(F)c(OC)cc(OC)c5F)ncc34)ccc2C1=O [Example 58, 5-[6-(2,6-Difluoro-3,5-dimethoxyphenyl)-1H-pyrazolo[4,3-c]pyridin-3-yl]-2-(2-methoxyethyl)isoindolin-1-one] | < 100 | < 100 | < 100
COc1cc(OC)c(F)c(-c2cc3[nH]nc(-c4ccc5c(c4)CN([C@H]4CC[C@@H](O)CC4)C5=O)c3cn2)c1F [Example 61, 5-[6-(2,6-Difluoro-3,5-dimethoxyphenyl)-1H-pyrazolo[4,3-c]pyridin-3-yl]-2-(cis-4-hydroxycyclohexyl)isoindolin-1-one] | < 100 | < 100 | < 100
COc1cc(OC)c(F)c(-c2cc3[nH]nc(-c4ccc5c(c4)CN([C@H]4CC[C@H](O)CC4)C5=O)c3cn2)c1F [Example 62, 5-[6-(2,6-Difluoro-3,5-dimethoxyphenyl)-1H-pyrazolo[4,3-c]pyridin-3-yl]-2-(trans-4-hydroxycyclohexyl)isoindolin-1-one] | < 100 | < 100 | < 100

The next lines start with the values.

IC50 [1] [nM] | IC50 [2] [nM] | IC50 [3] [nM] | SMILES
< 100 | < 100 | < 100 | COc1cc(OC)c(Cl)c(-c2cc3[nH]nc(-c4cnn(CC(=O)NC5CCN(C)CC5)c4)c3cn2)c1Cl [Example 42, 2-{4-[6-(2,6-Dichloro-3,5-dimethoxyphenyl)-1H-pyrazolo[4,3-c]pyridin-3-yl]-1H-pyrazol-1-yl}-N-(1-methylpiperidin-4-yl)acetamide]
< 100 | < 100 | < 100 | COc1cc(OC)c(Cl)c(-c2cc3[nH]nc(-c4cnn(CC(=O)N5CCC(OC)C5)c4)c3cn2)c1Cl (stereo not drawn) [Example 45, 6-(2,6-Dichloro-3,5-dimethoxyphenyl)-3-{1-[2-(3-methoxypyrrolidin-1-yl)-2-oxoethyl]-1H-pyrazol-4-yl}-1H-pyrazolo[4,3-c]pyridine]
< 100 | < 100 | < 100 | COc1cc(OC)c(Cl)c(-c2cc3[nH]nc(-c4cnn(CC(=O)N5CCC(C#N)C5)c4)c3cn2)c1Cl (stereo not drawn) [Example 47, 1-({4-[6-(2,6-Dichloro-3,5-dimethoxyphenyl)-1H-pyrazolo[4,3-c]pyridin-3-yl]-1H-pyrazol-1-yl}acetyl)pyrrolidine-3-carbonitrile]
< 100 | < 100 | < 100 | COc1cc(OC)c(Cl)c(-c2cc3[nH]nc(/C=C/c4cnn(C)c4)c3cn2)c1Cl [Example 49, 6-(2,6-Dichloro-3,5-dimethoxyphenyl)-3-[(E)-2-(1-methyl-1H-pyrazol-4-yl)vinyl]-1H-pyrazolo[4,3-c]pyridine]
< 100 | < 100 | < 100 | COc1cc(OC)c(Cl)c(-c2cc3[nH]nc(-c4cnn(C[C@H](C)O)c4)c3cn2)c1Cl [Example 51, (2S)-1-{4-[6-(2,6-Dichloro-3,5-dimethoxyphenyl)-1H-pyrazolo[4,3-c]pyridin-3-yl]-1H-pyrazol-1-yl}propan-2-ol]
< 100 | < 100 | < 100 | COc1cc(OC)c(F)c(-c2cc3[nH]nc(-c4ccc5c(c4)CN(C(C)C)C5=O)c3cn2)c1F [Example 53, 5-[6-(2,6-Difluoro-3,5-dimethoxyphenyl)-1H-pyrazolo[4,3-c]pyridin-3-yl]-2-isopropylisoindolin-1-one]
< 100 | < 100 | < 100 | COc1cc(OC)c(F)c(-c2cc3[nH]nc(-c4ccc5c(c4)CCC(C(=O)N(C)C)O5)c3cn2)c1F (stereo not drawn) [Example 57, 6-[6-(2,6-Difluoro-3,5-dimethoxyphenyl)-1H-pyrazolo[4,3-c]pyridin-3-yl]-N,N-dimethylchromane-2-carboxamide]
< 100 | < 100 | < 100 | COc1cc(OC)c(F)c(-c2cc3[nH]nc(-c4ccc5c(c4)CN(C4CCOCC4)C5=O)c3cn2)c1F [Example 59, 5-[6-(2,6-Difluoro-3,5-dimethoxyphenyl)-1H-pyrazolo[4,3-c]pyridin-3-yl]-2-(tetrahydro-2H-pyran-4-yl)isoindolin-1-one]
< 100 | < 100 | < 100 | COc1cc(OC)c(F)c(-c2cc3[nH]nc(-c4ccc5c(c4)CN(CC(F)(F)F)C5=O)c3cn2)c1F [Example 60, 5-[6-(2,6-Difluoro-3,5-dimethoxyphenyl)-1H-pyrazolo[4,3-c]pyridin-3-yl]-2-(2,2,2-trifluoroethyl)isoindolin-1-one]
< 100 | < 100 | < 100 | COc1cc(OC)c(F)c(-c2cc3[nH]nc(-c4ccc5c(c4)CN(C(C)CO)C5=O)c3cn2)c1F (stereo not drawn) [Example 63, 5-[6-(2,6-Difluoro-3,5-dimethoxyphenyl)-1H-pyrazolo[4,3-c]pyridin-3-yl]-2-(2-hydroxy-1-methylethyl)isoindolin-1-one]
< 100 | < 100 | < 100 | COc1cc(OC)c(F)c(-c2cc3[nH]nc(-c4ccc5c(c4)CN(CC(C)O)C5=O)c3cn2)c1F (stereo not drawn) [Example 64, 5-[6-(2,6-Difluoro-3,5-dimethoxyphenyl)-1H-pyrazolo[4,3-c]pyridin-3-yl]-2-(2-hydroxypropyl)isoindolin-1-one]
